In patent US10730890B2, “Phthalocyanine derivative consisting of a mixture of 4 isomers” (MOLTENI THERAPEUTICS S.R.L., priority 2009, dated 2020):

Key:
[1] = solubilisation of intermediate (II) in DMF and THF/MeOH 1/1, HPLC analysis of the solutions; type: physicochemical; conditions: 2 mg/ml, isomer B precipitates
Description: Experimental Proof of the Difficulty of Preparing Solutions of (II), Due to the Low Solubility of the Isomer B.
Two samples of the same batch of intermediate (II) are solubilised (2 mg/ml) in, DMF and THF/MeOH 1/1. The solutions are appropriately diluted and analysed in HPLC. […] This behaviour can lead to the preparation of samples having variable composition and, ultimately, to the production of not reliable analytical data including the ones concerning the other isomers

[2] = pharmacological and toxicological activity of product (I) compared with compounds (V) and (VI); conditions: new isomers distribution (low isomer B content) with respect to compounds (V) and (VI)

Substance	solubility of the isomer B in comparison to the other isomers [1]	difference in terms of pharmacological and toxicological activity [2]
[1,8(11),15(18),22(25)-tetrakis-(3-N,N-dimethylamino phenoxy)] Zinc Phthalocyaninate [isomer B]	lower solubility	–
[1.8(11),15(18),22(25)-tetrakis-(3-N,N,N-trimethylammonium phenoxy)] Zinc Phthalocyaninate Tetrachloride “With Low Isomer B Content” [(I)]	–	does not imply any difference
